According to patent US20190133128A1, “Fungicidal pyridazinones” (FMC Corporation, priority 2017, published 2019):

How the values were obtained:
Assay type in all cases: in vivo
[1] = test system: Phytophthora infestans; assay: whole plant or invertebrate; settings: tomato seedlings
[2] = test system: Zymoseptoria tritici; assay: Test E: preventive spray on wheat seedlings, wheat leaf blotch, visual disease rating
In short: (§1)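 Preventive foliar spray of wheat seedlings to run-off, at 250 ppm or other indicated rate. Compounds dissolved in acetone (3% of final volume), suspended in 50/50 acetone–water with PEG400 surfactant. Disease rated visually.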

[3] = test system: Erysiphe graminis f. sp. tritici; assay: Test G: preventive spray on wheat seedlings, wheat powdery mildew, visual disease rating
In short: as §1

[4] = test system: Botrytis cinerea; assay: Test C: preventive spray on tomato seedlings, gray mold, visual disease rating
In short: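 Tomato seedlings received a run-off spray, typically 250 ppm (or stated rate), ahead of gray mold inoculation and visual scoring. Test suspensions: acetone stock (3% of volume) diluted into 1:1 acetone/water containing PEG400.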

[5] = test system: Plasmopara viticola; assay: Test B: preventive spray on grape seedlings, grape downy mildew, disease rating
From the text: General protocol for preparing test solutions for Tests AG: the test compounds were first dissolved in acetone in an amount equal to 3% of the final volume and then suspended at the desired concentration (in ppm) in acetone and purified water (50/50 mix by volume) containing the surfactant PEG400 (polyhydric alcohol esters). The resulting test suspensions were then used in Tests AG. Compounds were sprayed at a concentration of 250 ppm or other indicated rate to the point of run-off on the test plants. The test solution was sprayed to the point of run-off on grape seedlings. […] A dash (-) indicates no test results.

[6] = test system: Puccinia recondita f. sp. tritici; assay: Test F: preventive spray on wheat seedlings, wheat leaf rust, visual disease rating
In short: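 Preventive test: wheat seedlings were sprayed to run-off with compound suspended in acetone/water 50/50 plus PEG400 (250 ppm or other indicated rate). One day later they received Puccinia recondita f. sp. tritici spores, and disease was scored visually.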

[7] = test system: Phakopsora pachyrhizi; assay: Test A: preventive spray on soybean seedlings, Asian soybean rust, visual disease rating
[8] = 250 ppm, 100 = 100% disease control, 0 = no control

Row | SMILES | Test D disease control rating [1, 8] | Test E disease control rating [2, 8] | Test G disease control rating [3, 8] | Test C disease control rating [4, 8] | Test B disease control rating [5, 8] | Test F disease control rating [6, 8] | Test A disease control rating [7, 8] | Test D disease control rating ([1]; 50 ppm) | Test E disease control rating ([2]; 50 ppm) | Test G disease control rating ([3]; 50 ppm) | Test C disease control rating ([4]; 50 ppm) | Test B disease control rating ([5]; 50 ppm) | Test F disease control rating ([6]; 50 ppm) | Test A disease control rating ([7]; 50 ppm)
1 | Cn1ncc(OC/C=C/c2ccccc2)c(C(=O)Nc2ccc(OC(F)(F)F)cc2)c1=O [Compound 132] | 17% | 50% | 97% | 0% | 25% | 91% | 0% |  |  |  |  |  |  | 
2 | Cn1ncc(O)c(C(=O)Nc2ccc(C(F)(F)F)cc2C(F)(F)F)c1=O [Compound 147] | 99% | 87% | 98% | 0% | 97% | 99% | 0% |  |  |  |  |  |  | 
3 | CSc1cnn(C)c(=O)c1C(=O)Nc1ccc(OC(F)(F)F)cc1 [Compound 109] | 0% | 0% | 55% | 0% | 0% | 0% | 0% |  |  |  |  |  |  | 
4 | Cn1ncc(O)c(C(=O)Nc2ccc(F)cc2Cl)c1=O [Compound 134] | 0% | 45% | 90% | 0% | 92% | 32% | 75% |  |  |  |  |  |  | 
5 | Cn1ncc(O)c(C(=O)Nc2ccc(CC(F)(F)F)cc2)c1=O [Compound 140] | 96% | 88% | 27% | 0% | 100% | 99% | 0% |  |  |  |  |  |  | 
6 | Cn1ncc([S+](C)[O-])c(C(=O)Nc2ccc(OC(F)(F)F)cc2)c1=O (stereo not shown) [Compound 110] |  |  |  |  |  |  |  | 0% | 88% | 0% | 0% | 0% | 74% | 92%
7 | CCCC[N+](CCCC)(CCCC)CCCC.Cn1ncc([O-])c(C(=O)Nc2ccc(S(F)(F)(F)(F)F)cc2)c1=O [Compound 143] | 70% | 88% | 69% | 0% | 100% | 94% | 62% |  |  |  |  |  |  | 
8 | Cn1ncc(O)c(C(=O)Nc2cccc(Oc3ccccc3)c2)c1=O [Compound 151] | 0% |  | 13% | 0% | 83% | 85% | 0% |  |  |  |  |  |  | 
9 | Cn1ncc(O)c(C(=O)Nc2ccc(F)cc2F)c1=O [Compound 144] | 99% |  | 87% | 0% | 100% | 99% | 0% |  |  |  |  |  |  | 
